Data on two compounds can be found in paper PMC11907390, “Proteome‐Wide Profiling of Olaparib Interactors Using a Biotinylated Photoaffinity Probe” (Chembiochem, 2025).

The structures appear in SMILES notation.

The target of one experiment is PARP1 (Homo sapiens, UniProt P09874). In words: PARP1 activity assay (Figure S6); also photoaffinity pull-down from HeLa lysate with MS and Western blot. In kind it is biochemical.
A further experiment has as its target CDK8 (Homo sapiens, UniProt P49336). The experiment is described as follows: photoaffinity labeling, streptavidin pull-down and MS in HeLa lysate, enriched over probe […] in two biological replicates. In kind it is cell-based.
The next experiment addresses PARP4 (Homo sapiens, UniProt Q9UKK3). In words: competition of probe […] photoaffinity pull-down in HeLa lysate by unlabeled olaparib ([…]), MS. In kind it is cell-based.

Chain of PARP1 (P09874 2-1014): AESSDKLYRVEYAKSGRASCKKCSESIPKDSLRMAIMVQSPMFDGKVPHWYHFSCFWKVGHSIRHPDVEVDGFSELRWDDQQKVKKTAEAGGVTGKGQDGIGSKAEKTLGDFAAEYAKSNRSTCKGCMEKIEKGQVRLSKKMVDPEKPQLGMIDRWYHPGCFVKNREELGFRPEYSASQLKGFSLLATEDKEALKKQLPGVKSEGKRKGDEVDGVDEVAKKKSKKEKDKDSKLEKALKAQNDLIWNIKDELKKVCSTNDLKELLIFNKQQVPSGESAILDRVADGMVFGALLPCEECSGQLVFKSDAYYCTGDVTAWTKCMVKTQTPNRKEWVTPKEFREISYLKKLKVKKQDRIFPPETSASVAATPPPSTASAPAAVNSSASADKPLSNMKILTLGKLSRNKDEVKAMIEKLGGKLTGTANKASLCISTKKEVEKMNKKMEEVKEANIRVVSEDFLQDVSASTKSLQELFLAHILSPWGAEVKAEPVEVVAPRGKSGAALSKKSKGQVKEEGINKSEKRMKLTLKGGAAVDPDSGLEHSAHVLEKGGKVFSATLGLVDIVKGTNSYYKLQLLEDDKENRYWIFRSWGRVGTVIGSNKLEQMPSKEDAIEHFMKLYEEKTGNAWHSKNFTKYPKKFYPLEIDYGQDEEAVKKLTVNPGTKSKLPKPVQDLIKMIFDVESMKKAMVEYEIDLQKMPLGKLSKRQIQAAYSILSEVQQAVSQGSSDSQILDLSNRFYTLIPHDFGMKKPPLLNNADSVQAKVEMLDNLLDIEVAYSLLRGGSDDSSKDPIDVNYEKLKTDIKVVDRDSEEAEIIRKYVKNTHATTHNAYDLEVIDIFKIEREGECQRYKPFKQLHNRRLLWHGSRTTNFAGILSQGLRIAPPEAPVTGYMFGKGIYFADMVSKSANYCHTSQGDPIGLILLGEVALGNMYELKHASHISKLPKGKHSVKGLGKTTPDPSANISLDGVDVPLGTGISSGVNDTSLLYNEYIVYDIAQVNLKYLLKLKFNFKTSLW
Chain of CDK8 (P49336 whole entry): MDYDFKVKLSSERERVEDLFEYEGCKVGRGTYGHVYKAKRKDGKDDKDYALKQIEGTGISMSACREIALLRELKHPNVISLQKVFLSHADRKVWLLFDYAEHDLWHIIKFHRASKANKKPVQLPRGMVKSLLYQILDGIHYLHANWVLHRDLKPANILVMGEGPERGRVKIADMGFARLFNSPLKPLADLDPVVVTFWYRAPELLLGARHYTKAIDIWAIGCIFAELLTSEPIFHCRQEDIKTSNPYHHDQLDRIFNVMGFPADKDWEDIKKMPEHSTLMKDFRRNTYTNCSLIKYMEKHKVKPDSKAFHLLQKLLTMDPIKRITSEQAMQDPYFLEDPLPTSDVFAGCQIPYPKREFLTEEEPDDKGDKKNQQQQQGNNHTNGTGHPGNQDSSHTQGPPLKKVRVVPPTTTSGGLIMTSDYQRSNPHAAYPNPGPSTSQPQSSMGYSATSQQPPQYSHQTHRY
Chain of PARP4 (Q9UKK3 whole entry): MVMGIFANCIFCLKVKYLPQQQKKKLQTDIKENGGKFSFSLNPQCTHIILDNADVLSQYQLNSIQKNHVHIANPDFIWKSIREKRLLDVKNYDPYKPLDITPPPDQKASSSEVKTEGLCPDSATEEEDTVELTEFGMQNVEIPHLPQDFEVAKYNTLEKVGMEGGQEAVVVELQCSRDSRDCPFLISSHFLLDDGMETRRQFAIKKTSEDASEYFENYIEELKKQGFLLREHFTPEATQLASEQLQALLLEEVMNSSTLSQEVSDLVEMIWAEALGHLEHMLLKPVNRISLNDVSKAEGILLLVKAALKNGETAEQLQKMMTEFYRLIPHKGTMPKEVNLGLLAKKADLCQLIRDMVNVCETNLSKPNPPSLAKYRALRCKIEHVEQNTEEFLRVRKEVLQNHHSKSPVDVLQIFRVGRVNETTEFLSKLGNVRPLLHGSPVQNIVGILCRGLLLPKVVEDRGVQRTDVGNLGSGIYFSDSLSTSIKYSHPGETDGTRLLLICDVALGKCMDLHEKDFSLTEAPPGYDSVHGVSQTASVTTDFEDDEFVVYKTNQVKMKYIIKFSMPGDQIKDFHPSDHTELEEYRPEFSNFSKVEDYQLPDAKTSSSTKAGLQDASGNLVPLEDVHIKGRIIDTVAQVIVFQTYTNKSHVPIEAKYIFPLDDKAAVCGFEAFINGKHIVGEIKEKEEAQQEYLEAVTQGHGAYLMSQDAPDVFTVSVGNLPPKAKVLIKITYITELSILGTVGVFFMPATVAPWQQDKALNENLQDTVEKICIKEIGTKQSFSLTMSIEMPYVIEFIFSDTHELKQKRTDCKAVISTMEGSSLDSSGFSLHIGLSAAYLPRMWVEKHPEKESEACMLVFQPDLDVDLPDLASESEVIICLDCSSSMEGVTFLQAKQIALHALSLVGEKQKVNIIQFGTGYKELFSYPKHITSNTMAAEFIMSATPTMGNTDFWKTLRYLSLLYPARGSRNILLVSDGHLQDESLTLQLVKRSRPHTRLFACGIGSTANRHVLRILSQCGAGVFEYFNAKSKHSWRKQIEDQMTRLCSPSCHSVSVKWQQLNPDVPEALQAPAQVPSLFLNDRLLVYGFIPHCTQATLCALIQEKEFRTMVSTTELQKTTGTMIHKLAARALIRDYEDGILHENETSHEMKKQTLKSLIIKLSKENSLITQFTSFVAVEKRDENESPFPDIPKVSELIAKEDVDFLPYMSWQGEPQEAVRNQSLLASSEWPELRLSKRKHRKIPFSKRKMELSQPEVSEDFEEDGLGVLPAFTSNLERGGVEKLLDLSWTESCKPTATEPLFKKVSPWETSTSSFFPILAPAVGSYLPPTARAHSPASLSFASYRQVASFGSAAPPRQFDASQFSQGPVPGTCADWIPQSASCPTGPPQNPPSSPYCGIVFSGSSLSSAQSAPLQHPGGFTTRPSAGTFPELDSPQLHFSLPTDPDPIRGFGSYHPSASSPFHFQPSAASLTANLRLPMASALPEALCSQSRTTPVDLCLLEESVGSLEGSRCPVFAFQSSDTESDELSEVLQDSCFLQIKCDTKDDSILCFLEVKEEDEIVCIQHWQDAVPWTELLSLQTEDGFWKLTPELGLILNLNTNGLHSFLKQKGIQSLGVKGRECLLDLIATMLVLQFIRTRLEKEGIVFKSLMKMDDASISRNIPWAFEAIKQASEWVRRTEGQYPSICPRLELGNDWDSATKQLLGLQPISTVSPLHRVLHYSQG

Broadly, the IC50 is the midpoint of a concentration-inhibition curve. Low values mean inhibition by little substance, high ones a need for much substance. `O=C(CCCC[C@@H]1SC[C@@H]2NC(=O)N[C@@H]21)NCCOCCOCCOCCn1cc(CCCCC2(CCC(=O)N3CCN(C(=O)c4cc(Cc5n[nH]c(=O)c6ccccc56)ccc4F)CC3)N=N2)nn1` [compound 4, probe 4] came in with an IC50 against PARP1 of 3.8 µM. The “photoaffinity labeling, streptavidin pull-down and MS in HeLa lysate, enriched o” value at CDK8 is “CDK8 and its paralogue CDK19, both transcriptional regulators, were identified in our screening as direct olaparib interactors”.

For the compound `O=C(c1cc(Cc2n[nH]c(=O)c3ccccc23)ccc1F)N1CCN(C(=O)C2CC2)CC1` [olaparib], the “competition of probe 4 photoaffinity pull-down in HeLa lysate by unlabeled olapa” value on PARP4 is reported as “This concentration‐dependent competition demonstrates the specificity of these interactions for the olaparib pharmacophore”.
